Reference: patent publication US10272133B2, “Compositions and methods for treating and preventing hyperlipidemia, fatty liver, atherosclerosis and other disorders associated with metabolic syndrome” (VANDERBILT UNIVERSITY, priority 2011, dated 2019)
Values after ≈ are worked out from the molar mass of the structure shown. Like-named read-outs stand apart in the source and are kept apart here. Each block holds one compound with its values, some of them ahead of it. Bridge positions count the residues as written; N and C are the ends. Ends that are not written are not given here. Peptide text beside a SMILES is read from it.

Key:
importin beta [1] = target: T1, importin beta (Homo sapiens, UniProt Q14974); experiment: Importins pull-down assay, Jurkat T cell extract; assay type: binding; design: whole cell extract from unstimulated human Jurkat T cells; endogenous in cells; host or cells: human Jurkat T cells, whole-cell extract; settings: biotinylated peptide, Jurkat T cell lysate pull-down
T1 sequence (Q14974 whole entry): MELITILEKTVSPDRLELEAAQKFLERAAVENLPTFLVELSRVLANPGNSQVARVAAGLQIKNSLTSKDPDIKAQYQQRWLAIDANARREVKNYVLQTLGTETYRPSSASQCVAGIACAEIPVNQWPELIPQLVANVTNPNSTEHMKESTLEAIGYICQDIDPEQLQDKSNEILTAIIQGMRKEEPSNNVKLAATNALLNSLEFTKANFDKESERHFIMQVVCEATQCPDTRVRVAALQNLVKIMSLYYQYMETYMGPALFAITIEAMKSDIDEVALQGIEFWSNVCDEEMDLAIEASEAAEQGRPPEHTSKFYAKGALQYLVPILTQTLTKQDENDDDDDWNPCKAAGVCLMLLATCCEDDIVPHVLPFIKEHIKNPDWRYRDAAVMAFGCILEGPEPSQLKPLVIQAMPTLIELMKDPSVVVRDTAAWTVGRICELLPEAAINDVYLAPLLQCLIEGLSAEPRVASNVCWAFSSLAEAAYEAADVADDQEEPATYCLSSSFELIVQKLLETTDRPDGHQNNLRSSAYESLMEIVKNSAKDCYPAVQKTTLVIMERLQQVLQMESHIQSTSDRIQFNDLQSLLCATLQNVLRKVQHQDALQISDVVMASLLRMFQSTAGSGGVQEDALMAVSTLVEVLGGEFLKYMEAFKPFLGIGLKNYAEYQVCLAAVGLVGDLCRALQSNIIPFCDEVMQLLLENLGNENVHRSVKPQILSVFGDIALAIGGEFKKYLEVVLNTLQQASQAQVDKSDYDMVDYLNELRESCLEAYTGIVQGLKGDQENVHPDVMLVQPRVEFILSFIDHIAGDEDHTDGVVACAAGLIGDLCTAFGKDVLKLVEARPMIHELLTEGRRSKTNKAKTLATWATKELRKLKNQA
Method: (§1) Cell-penetrating peptide cSN50.1 (2986 Da) and other peptides listed in Table 1 were synthesized and prepared as previously described (Liu, D., et al., (2009) Mol Ther 17, 796-802). Biotinylated NTM peptides and their constituent modules were prepared in the same manner, with biotin added to the amino terminus at the last step of synthesis. When necessary, a 5-7 hydrophilic amino acid tag was added to peptide modules to facilitate solubility. For i.p. administration, 200 μl aliquots containing 0.4 or 0.7 mg of cSN50.1 in saline was injected at 8 h or 12 h intervals. Alternatively, 10 mg cSN50.1 in 100 μl sterile H2O was administered subcutaneously from ALZET Osmotic Pumps (1007D) placed aseptically in interscapular areas. A bolus of 0.7 mg cSN50.1 in 100 μl saline was administered i.p. at weekly pump changes to assure steady NTM bioavailability. Dosage schedules were developed based on previous experimental protocols and half-life studies. Control mice received sterile saline in the same volumes as NTM. Importins pull-down assay. Ten nmols of biotinylated NTM peptides or their constituent modules depicted in Table 1 (SN50, cSN50.1, N50, cN50.1, SSHR-1, SSHR-2) were incubated overnight at 4° C. with 1.5 mg of whole cell extract from unstimulated human Jurkat T cells or serum-starved human HepG2 cells lysed in binding buffer (10 mM HEPES at pH 7.9, 150 mM NaCl, 10 mM KCl, 2.5 mM MgCl2, 1 mM EGTA, 1 mM DTT, 0.1% NP-40, 1% protease inhibitor cocktail). Lysate was cleared by centrifugation (16,000×g for 30 min at 4° C.) and transferred to a fresh tube containing high capacity Neutravidin beads (Thermo Scientific). After 4 h, beads were separated from lysate/peptide mixture by centrifugation (30 s at 1,000×g) and washed 3 times with binding buffer and 2 times with PBS. Beads were boiled for 10 min in SDS loading buffer, and protein content was analyzed by immunoblotting with a panel of anti-importins alpha and beta antibodies and anti-GAPDH (Abcam) as a cellular protein control.

Solubility of peptides = assay type: physicochemical
ldlr−/− mice = experiment: General safety in ldlr-/- mice (blood cells, blood chemistries, infection); assay type: in vivo, mouse
Method: Six week old B6.129S7-Ldlrtm1Her/J female mice were purchased from Jackson Laboratories. Mice were fed a Western diet containing 21% milk fat and 0.15% cholesterol and maintained according to the guidelines for use and care of laboratory animals approved by the Vanderbilt University Institutional Animal Care and Use Committee. Mice and food were weighed at the beginning and end of each experiment. Blood chemistries were determined in fasting mouse plasma using an automated chemistry analyzer in the Vanderbilt Clinical Research Center. Total cholesterol and triglycerides in liver and cholesterol in feces were analyzed by standard methods in the Lipid Core Laboratory. Complete blood cell counts were performed in the Clinical Hematology Laboratory and flow cytometry analysis of lymphocytes subsets was. Cryostat sections of livers were stained with Oil-red-O. Atherosclerotic lesions and macrophages were analyzed in the aortic root by staining with Oil-red-O and MOMA-2, respectively. Average lesion area was determined using Imaging System KS300 2.0.

[2] = system: importins alpha 1, 4, and 5; experiment: Importins pull-down assay, Jurkat T cell extract; assay type: binding, human; settings: biotinylated peptide, Jurkat T cell lysate pull-down
Method: as §1

[3] = system: ldlr−/− mice fed a Western diet; experiment: Hyperlipidemia, fatty liver, hyperglycemia and weight gain in ldlr-/- mice fed a Western diet; assay type: in vivo, mouse
Method: (§2) Cell-penetrating peptide cSN50.1 (2986 Da) and other peptides listed in Table 1 were synthesized and prepared as previously described (Liu, D., et al., (2009) Mol Ther 17, 796-802). Biotinylated NTM peptides and their constituent modules were prepared in the same manner, with biotin added to the amino terminus at the last step of synthesis. When necessary, a 5-7 hydrophilic amino acid tag was added to peptide modules to facilitate solubility. For i.p. administration, 200 μl aliquots containing 0.4 or 0.7 mg of cSN50.1 in saline was injected at 8 h or 12 h intervals. Alternatively, 10 mg cSN50.1 in 100 μl sterile H2O was administered subcutaneously from ALZET Osmotic Pumps (1007D) placed aseptically in interscapular areas. A bolus of 0.7 mg cSN50.1 in 100 μl saline was administered i.p. at weekly pump changes to assure steady NTM bioavailability. Dosage schedules were developed based on previous experimental protocols and half-life studies. Control mice received sterile saline in the same volumes as NTM. Importins pull-down assay. […] Beads were boiled for 10 min in SDS loading buffer, and protein content was analyzed by immunoblotting with a panel of anti-importins alpha and beta antibodies and anti-GAPDH (Abcam) as a cellular protein control.
Six week old B6.129S7-Ldlrtm1Her/J female mice were purchased from Jackson Laboratories. […] Blood chemistries were determined in fasting mouse plasma using an automated chemistry analyzer in the Vanderbilt Clinical Research Center. Total cholesterol and triglycerides in liver and cholesterol in feces were analyzed by standard methods in the Lipid Core Laboratory. […] Cryostat sections of livers were stained with Oil-red-O. Atherosclerotic lesions and macrophages were analyzed in the aortic root by staining with Oil-red-O and MOMA-2, respectively. Average lesion area was determined using Imaging System KS300 2.0.

GAPDH [4] = target: T2, GAPDH (Homo sapiens, UniProt P04406); experiment: Importins pull-down assay, Jurkat T cell extract, control protein; assay type: binding; design: endogenous in cells; settings: biotinylated peptide, Jurkat T cell lysate pull-down
T2 sequence (P04406 whole entry): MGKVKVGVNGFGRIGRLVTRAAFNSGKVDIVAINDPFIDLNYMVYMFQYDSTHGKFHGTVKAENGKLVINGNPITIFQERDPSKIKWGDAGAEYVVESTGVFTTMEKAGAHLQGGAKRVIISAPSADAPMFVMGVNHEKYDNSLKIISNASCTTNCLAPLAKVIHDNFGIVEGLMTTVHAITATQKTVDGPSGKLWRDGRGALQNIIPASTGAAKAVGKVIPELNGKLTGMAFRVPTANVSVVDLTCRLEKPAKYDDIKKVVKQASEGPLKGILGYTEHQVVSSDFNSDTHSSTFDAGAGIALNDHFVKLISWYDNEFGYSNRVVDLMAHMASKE
Method: as §2

importin beta [5] = target: T1, importin beta; experiment: Importins pull-down assay, HepG2 cell extract; assay type: binding; design: endogenous in cells; settings: HepG2 cell extracts
Method: as §2, with “control. […]” for “control.”

GAPDH [6] = target: T2, GAPDH; experiment: Importins pull-down assay, HepG2 cell extract, control protein; assay type: binding; design: endogenous in cells; host or cells: human hepatoma HepG2 cells, starved overnight in 1% FBS, whole-cell extract; settings: HepG2 cell extracts
Method: as §2, with “control. […]” for “control.”

importin beta [7] = target: T1, importin beta; experiment: Nuclear Transport Modifier/importin beta competition binding assay; design: whole cell extract from unstimulated human Jurkat T cells; endogenous in cells; host or cells: human Jurkat T cells, whole-cell extract; settings: free non-biotinylated peptide 0-300 μM, Jurkat T cell extract
Method: Non-biotinylated SN50 peptide (at 0, 10, 30, 100 or 300 μM concentrations) was incubated overnight with 1 mg of human Jurkat T cell whole-cell extract at 4° C. Simultaneously, biotinylated SN50 peptide (10 nmols) was immobilized on high capacity Neutravidin beads at 4° C. overnight, then washed 3 times with PBS and 1 time with binding buffer to remove unbound biotinylated SN50. Binding mixture was precleared by centrifugation (16,000×g for 30 min at 4° C.) and transferred to a fresh tube containing washed high capacity Neutravidin beads complexed with immobilized biotinylated SN50 peptide. Immunoblot analysis of importin beta bound to beads was performed as described in the importins pull-down assay.

Compound: CSCC[C@@H]1NC(=O)[C@H](CC(C)C)NC(=O)[C@H](CCCCN)NC(=O)[C@H](CCC(N)=O)NC(=O)[C@H](CCCNC(=N)N)NC(=O)[C@H](CCCCN)NC(=O)[C@H](CCCNC(=N)N)NC(=O)[C@H](CCC(N)=O)NC(=O)[C@H](C(C)C)NC(=O)[C@@H](NC(=O)[C@@H]2CCCN2C(=O)[C@H](C)NC(=O)[C@H](CC(C)C)NC(=O)[C@H](CC(C)C)NC(=O)[C@H](C)NC(=O)[C@H](CC(C)C)NC(=O)[C@H](CC(C)C)NC(=O)[C@@H](NC(=O)[C@H](C)NC(=O)[C@@H]2CCCN2C(=O)[C@H](CC(C)C)NC(=O)[C@H](CC(C)C)NC(=O)[C@H](C)NC(=O)[C@@H](NC(=O)[C@H](C)NC(=O)[C@H](C)N)C(C)C)C(C)C)CSSC[C@@H](C(=O)O)NC(=O)[C@@H]2CCCN2C1=O [cSN50.1] (H-AAVALLPAVLLALLAPCVQRKRQKLMPC-OH; disulfide 17-28; N-terminus and C-terminus assumed)
signs of infection or illness (ldlr−/− mice; 8 weeks of treatment): no overt signs of infection or illness | blood cell populations and blood chemistries (ldlr−/− mice; mouse, in vivo): did not reveal any significant changes | general susceptibility to environmental pathogens (ldlr−/− mice; mouse, in vivo): did not cause any apparent signs | solubility (Solubility of peptides; read-out: solubility): 100 mg/mL (≈ 33.5 mM)

Compound: VQRKRQKLMP (HOMO SAPIENS) [N50]
interaction with importins alpha 1, 4, and 5 [2]: maintain reactivity | interaction with importin beta (importin beta [1]): did not react

Compound: AAVALLPAVLLALLAPCVQRDEQKLMPC (disulfide 17-28 (inferred)) [cSN50.1 Beta]
interaction with importins alpha 1, 4, and 5 [2]: did not react

Compound: AAVALLPAVLLALLAPVQRKRQKLMP [SN50]
interaction with importins alpha 1, 4, and 5 [2]: interacted | interaction with control cytoplasmic marker protein GAPDH (GAPDH [4]): not with the control cytoplasmic marker protein GAPDH | interaction with importin beta (importin beta [5]): interacted | interaction with control protein GAPDH (GAPDH [6]): not with the control protein GAPDH | interaction with importin beta (importin beta [1]): interacted | inhibition of biotinylated SN50 binding to importin beta (importin beta [7]): competitively inhibited

Continued, in another order:

interaction with importin beta (importin beta [1]): importin beta-binding function
Compound: AVLLALLAP (HOMO SAPIENS) [SSHR-2]

solubility (Solubility of peptides; depending on the method of synthesis and purification, read-out: soluble at levels): 2 to 40 mg/mL (≈ 0.635 to 12.7 mM)
Compound: CSCC[C@@H]1NC(=O)[C@H](CC(C)C)NC(=O)[C@H](CCCCN)NC(=O)[C@H](CCC(N)=O)NC(=O)[C@H](CCCNC(=N)N)NC(=O)[C@H](CCCCN)NC(=O)[C@H](CCCNC(=N)N)NC(=O)[C@H](CCC(N)=O)NC(=O)[C@H](C(C)C)NC(=O)[C@H](Cc2ccc(O)cc2)NC(=O)[C@@H](NC(=O)[C@@H]2CCCN2C(=O)[C@H](C)NC(=O)[C@H](CC(C)C)NC(=O)[C@H](CC(C)C)NC(=O)[C@H](C)NC(=O)[C@H](CC(C)C)NC(=O)[C@H](CC(C)C)NC(=O)[C@@H](NC(=O)[C@H](C)NC(=O)[C@@H]2CCCN2C(=O)[C@H](CC(C)C)NC(=O)[C@H](CC(C)C)NC(=O)[C@H](C)NC(=O)[C@@H](NC(=O)[C@H](C)NC(=O)[C@H](C)N)C(C)C)C(C)C)CSSC[C@@H](C(=O)O)NC(=O)[C@@H]2CCCN2C1=O [cSN50] (H-AAVALLPAVLLALLAPCYVQRKRQKLMPC-OH; disulfide 17-29; N-terminus and C-terminus assumed)

interaction with importin beta (importin beta [1]): did not react
Compound: CVQRKRQKLMPC (disulfide 1-12 (inferred)) [cN50.1]
interaction with importins alpha 1, 4, and 5 [2]: maintain reactivity | liver alanine and aspartate transaminases (ALT and AST) in plasma ([3]; 8 weeks): elevated levels | results vs mice given saline ([3]; control peptide, plasma cholesterol and triglycerides): not different | experimental endpoints (hypercholesterolemia) vs saline alone ([3]; non-cell penetrating control peptide in saline): did not differ significantly
